According to patent US20070293477A1, “Novel Compounds” (SMITHKLINE BEECHAM CORPORATION, priority 2004, published 2007):

The compounds below were run against T1, TRPV4 channel receptor (Homo sapiens, UniProt Q9HBA0) (assay: FLIPR assay using TRPV4 expressing HEK cells). Details: FLIPR method; pEC50 = −log10(EC50 μM).
T1 construct: expressed in transfected cells; host or cells: HEK cells
Type: cell-based
Text: Other techniques used to measure TRPV4 channel receptor activation in chondrocytes include, but are not limited to: FLIPR assay, measuring a compound's capability to reduce the amount of ADAMTSs produced and/or released in response to a catabolic stimulus by a cell comprising a TRPV4 channel receptor; measuring a compound's capability to reduce the amount of MMPs produced and/or released in response to a catabolic stimulus by a cell comprising a TRPV4 channel receptor; measuring a compound's capability to effect the amount of nitric oxide (NO) produced in response to a catabolic stimulus by a cell comprising a TRPV4 channel receptor; and measuring a compound's capability to attenuate the inhibition of matrix synthesis in response to a catabolic stimulus by a cell comprising a TRPV4 channel receptor.
(§1) All exemplary compounds of the present invention were assessed using at least one of the biological assays presented above. Compounds presented in the Examples had EC50 values of about 0.01 μM to about 30 μM as measured by Flex Station using bovine articular chondrocytes and pEC50 values between about 4.5 to about 7.0 as measured by FLIPR assay using TRPV4 expressing HEK cells.

T1 sequence (Q9HBA0 whole entry): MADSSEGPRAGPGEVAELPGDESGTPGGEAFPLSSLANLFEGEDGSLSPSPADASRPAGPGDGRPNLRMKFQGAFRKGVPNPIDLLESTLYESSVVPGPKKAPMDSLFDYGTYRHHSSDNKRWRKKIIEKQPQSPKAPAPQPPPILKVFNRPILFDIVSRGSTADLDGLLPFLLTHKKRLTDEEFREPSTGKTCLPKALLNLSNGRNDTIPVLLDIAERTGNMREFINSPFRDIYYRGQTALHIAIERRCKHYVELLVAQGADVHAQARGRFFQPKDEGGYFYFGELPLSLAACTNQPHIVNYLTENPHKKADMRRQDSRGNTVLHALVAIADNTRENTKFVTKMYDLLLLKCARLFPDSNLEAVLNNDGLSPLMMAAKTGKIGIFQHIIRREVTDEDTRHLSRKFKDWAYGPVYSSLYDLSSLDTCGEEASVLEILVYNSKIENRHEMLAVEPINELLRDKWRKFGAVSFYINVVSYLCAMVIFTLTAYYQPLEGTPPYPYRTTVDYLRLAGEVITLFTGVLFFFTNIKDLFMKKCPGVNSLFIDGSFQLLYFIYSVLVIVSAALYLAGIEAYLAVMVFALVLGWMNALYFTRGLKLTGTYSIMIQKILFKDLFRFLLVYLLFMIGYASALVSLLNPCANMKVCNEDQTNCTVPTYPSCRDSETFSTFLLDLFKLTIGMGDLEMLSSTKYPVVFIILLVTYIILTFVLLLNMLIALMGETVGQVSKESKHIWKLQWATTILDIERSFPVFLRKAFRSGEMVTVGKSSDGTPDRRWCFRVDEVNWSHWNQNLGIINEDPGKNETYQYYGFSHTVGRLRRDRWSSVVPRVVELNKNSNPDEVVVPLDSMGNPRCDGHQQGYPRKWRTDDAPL

Structure (SMILES)	EC50 [µM]
CC(C)C[C@H](NC(=O)c1cc2ccccc2n1C)C(=O)NC1CCCN(S(=O)(=O)c2ccc(Cl)cc2)CC1 (mixture of isomers) [Example 3, 1-Methyl-1H-indole-2-carboxylic acid {(S)-1-[1-(4-chloro-benzenesulfonyl)-azepan-4-ylcarbamoyl]-3-methyl-butyl}-amide]	10 to 31.6
CC(C)C[C@H](NC(=O)c1cc2ccccc2s1)C(=O)N[C@@H]1CCCN(S(=O)(=O)c2ccc(Cl)cc2Cl)CC1 [Example 6, N-{(1S)-1-[({(4R)-1-[(2,4-Dichlorophenyl)sulfonyl]hexahydro-1H-azepin-4-yl}amino)carbonyl]-3-methylbutyl}-1-benzothiophene-2-carboxamide]	0.1 to 0.794
CC(C)C[C@H](NC(=O)c1cc2ccccc2n1C)C(=O)N(C)C1CCCN(S(=O)(=O)c2ccccc2C#N)CC1 (stereo partly drawn) [Example 11, N-((1S)-1-{[{1-[(2-Cyanophenyl)sulfonyl]hexahydro-1H-azepin-4-yl}(methyl)amino]carbonyl}-3-methylbutyl)-1-methyl-1H-indole-2-carboxamide]	1 to 7.94

These compounds were tested against T2, TRPV4 channel receptors (Bos taurus, UniProt A0A8F4X677) (assay: Ca2+ influx, Fura-2 fluorescence on FlexStation in bovine articular chondrocytes). Details: Fura-2, FlexStation.
T2 construct: obtained using this method in bovine articular chondrocytes; endogenous in cells; host or cells: bovine articular chondrocytes
Type: cell-based
Text: Ca^2+ influx mediated through TRPV4 channel receptors can be measured using articular chondrocytes from such species as, but not limited to, human, rat, canine, rabbit, monkey, and bovine, using standard techniques in the art such as, but not limited to, Fura-2 (Invitrogen/Molecular Probes, Eugene, Oreg.) fluorescence using a FlexStation (manufactured by Molecular Devices, Sunnyvale, Calif.). Table 1 lists biological data for several representative compounds obtained using this method in bovine articular chondrocytes.
as §1

T2 sequence (A0A8F4X677 1-871): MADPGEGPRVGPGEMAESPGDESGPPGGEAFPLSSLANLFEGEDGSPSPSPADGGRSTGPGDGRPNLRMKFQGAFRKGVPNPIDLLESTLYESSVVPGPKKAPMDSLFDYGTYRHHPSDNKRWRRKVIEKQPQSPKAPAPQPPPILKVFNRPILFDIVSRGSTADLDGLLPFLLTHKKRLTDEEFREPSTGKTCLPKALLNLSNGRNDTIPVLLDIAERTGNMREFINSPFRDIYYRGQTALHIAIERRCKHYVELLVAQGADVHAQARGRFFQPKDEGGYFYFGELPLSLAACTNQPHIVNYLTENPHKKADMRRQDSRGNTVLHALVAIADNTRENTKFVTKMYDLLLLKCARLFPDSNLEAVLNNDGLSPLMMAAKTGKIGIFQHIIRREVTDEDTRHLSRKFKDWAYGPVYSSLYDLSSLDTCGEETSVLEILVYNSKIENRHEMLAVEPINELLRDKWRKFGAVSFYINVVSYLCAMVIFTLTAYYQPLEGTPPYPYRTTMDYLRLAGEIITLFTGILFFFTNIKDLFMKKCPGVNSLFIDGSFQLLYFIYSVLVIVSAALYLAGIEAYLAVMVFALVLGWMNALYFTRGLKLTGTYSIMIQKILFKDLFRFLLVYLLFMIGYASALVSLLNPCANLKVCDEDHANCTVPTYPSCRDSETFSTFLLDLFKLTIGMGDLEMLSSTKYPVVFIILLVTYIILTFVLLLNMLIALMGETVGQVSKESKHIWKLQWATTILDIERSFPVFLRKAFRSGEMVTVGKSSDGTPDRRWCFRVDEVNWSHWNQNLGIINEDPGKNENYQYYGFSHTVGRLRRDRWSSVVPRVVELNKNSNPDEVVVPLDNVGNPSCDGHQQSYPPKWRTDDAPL

Structure (SMILES)	EC50 [µM]
CC(C)C[C@H](NC(=O)c1cc2ccccc2s1)C(=O)N[C@@H]1CCCN(S(=O)(=O)c2ccccc2C#N)CC1 [Example 5, N-{(1S)-1-[({(4R)-1-[(2-cyanophenyl)sulfonyl]hexahydro-1H-azepin-4-yl}amino)carbonyl]-3-methylbutyl}-1-benzothiophene-2-carboxamide]	0.14 to 1
CC(C)C[C@H](NC(=O)c1cc2ccccc2s1)C(=O)N[C@@H]1CCCN(S(=O)(=O)c2ccc(C#N)cc2)CC1 [Example 8, N-{(1S)-1-[({(4R)-1-[(4-Cyanophenyl)sulfonyl]hexahydro-1H-azepin-4-yl}amino)carbonyl]-3-methylbutyl}-1-benzothiophene-2-carboxamide]	10 to 30
CC(C)C[C@H](NC(=O)c1cc2ccccc2n1C)C(=O)N(C)C1CCCN(S(=O)(=O)c2ccccc2C#N)CC1 (stereo partly drawn) [Example 11, N-((1S)-1-{[{1-[(2-Cyanophenyl)sulfonyl]hexahydro-1H-azepin-4-yl}(methyl)amino]carbonyl}-3-methylbutyl)-1-methyl-1H-indole-2-carboxamide]	1.01 to 10
